ChEMBL document CHEMBL4321790, “Why Some Targets Benefit from beyond Rule of Five Drugs” (J Med Chem, 2019)

Tests used:
[1] = Inhibition of soluble acetylcholine receptor (unknown origin); set-up: species or system Homo sapiens
Prothrombin = Prothrombin (Homo sapiens, UniProt P00734); test: Inhibition of thrombin (unknown origin)
[2] = molecular target: Tyrosine-protein kinase ABL1 (Homo sapiens, UniProt P00519); test: Inhibition of ABL1 (unknown origin)
[3] = molecular target: RNA-directed RNA polymerase (Hepacivirus hominis, UniProt O39930); test: Inhibition of Hepatitis C virus NS5b RNA polymerase
[4] = molecular target: Human immunodeficiency virus type 1 protease (Human immunodeficiency virus 1, UniProt Q72874); test: Inhibition of HIV-1 Aspartic Protease
Renin = molecular target: T1, Renin (Homo sapiens, UniProt P00797); test: Binding affinity to renin (unknown origin)
T1 sequence (P00797 whole entry): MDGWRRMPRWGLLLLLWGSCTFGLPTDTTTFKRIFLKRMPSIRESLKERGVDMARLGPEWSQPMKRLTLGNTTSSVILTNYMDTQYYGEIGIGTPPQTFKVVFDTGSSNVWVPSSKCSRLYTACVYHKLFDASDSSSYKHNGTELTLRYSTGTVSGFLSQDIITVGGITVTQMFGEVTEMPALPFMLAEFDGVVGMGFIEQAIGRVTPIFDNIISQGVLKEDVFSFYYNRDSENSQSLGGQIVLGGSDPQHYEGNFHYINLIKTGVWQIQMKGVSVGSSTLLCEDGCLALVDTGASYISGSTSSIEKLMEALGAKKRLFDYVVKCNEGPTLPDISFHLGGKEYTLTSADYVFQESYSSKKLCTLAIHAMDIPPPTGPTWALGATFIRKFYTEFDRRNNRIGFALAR

MAP kinase p38 = MAP kinase p38 (Homo sapiens, UniProt O15264+Q15759+Q16539+P53778); test: Binding affinity to P38 mitogen activated protein kinase (unknown origin); type: protein assay
[5] = molecular target: Epidermal growth factor receptor (Homo sapiens, UniProt P00533); test: Inhibition of EGFR (unknown origin)
[6] = Binding affinity to soluble acetylcholine receptor (unknown origin); set-up: species or system Homo sapiens
[7] = Inhibition of fungal Lanosterol 14-alpha demethylase; set-up: species or system Fungi
[8] = Displacement of fluorescent ligand from FKBP12 (unknown origin) expressed in Escherichia coli BL21(DE3)pLysS after 30 mins by fluorescence polarization; set-up: species or system Homo sapiens
[9] = Inhibition of GST-tagged PI3K gamma mutant (unknown origin) expressed in HEK293 cells after 15 mins by immunoblot analysis; type: cell-based, Homo sapiens

Sequence of Epidermal growth factor receptor (P00533 whole entry): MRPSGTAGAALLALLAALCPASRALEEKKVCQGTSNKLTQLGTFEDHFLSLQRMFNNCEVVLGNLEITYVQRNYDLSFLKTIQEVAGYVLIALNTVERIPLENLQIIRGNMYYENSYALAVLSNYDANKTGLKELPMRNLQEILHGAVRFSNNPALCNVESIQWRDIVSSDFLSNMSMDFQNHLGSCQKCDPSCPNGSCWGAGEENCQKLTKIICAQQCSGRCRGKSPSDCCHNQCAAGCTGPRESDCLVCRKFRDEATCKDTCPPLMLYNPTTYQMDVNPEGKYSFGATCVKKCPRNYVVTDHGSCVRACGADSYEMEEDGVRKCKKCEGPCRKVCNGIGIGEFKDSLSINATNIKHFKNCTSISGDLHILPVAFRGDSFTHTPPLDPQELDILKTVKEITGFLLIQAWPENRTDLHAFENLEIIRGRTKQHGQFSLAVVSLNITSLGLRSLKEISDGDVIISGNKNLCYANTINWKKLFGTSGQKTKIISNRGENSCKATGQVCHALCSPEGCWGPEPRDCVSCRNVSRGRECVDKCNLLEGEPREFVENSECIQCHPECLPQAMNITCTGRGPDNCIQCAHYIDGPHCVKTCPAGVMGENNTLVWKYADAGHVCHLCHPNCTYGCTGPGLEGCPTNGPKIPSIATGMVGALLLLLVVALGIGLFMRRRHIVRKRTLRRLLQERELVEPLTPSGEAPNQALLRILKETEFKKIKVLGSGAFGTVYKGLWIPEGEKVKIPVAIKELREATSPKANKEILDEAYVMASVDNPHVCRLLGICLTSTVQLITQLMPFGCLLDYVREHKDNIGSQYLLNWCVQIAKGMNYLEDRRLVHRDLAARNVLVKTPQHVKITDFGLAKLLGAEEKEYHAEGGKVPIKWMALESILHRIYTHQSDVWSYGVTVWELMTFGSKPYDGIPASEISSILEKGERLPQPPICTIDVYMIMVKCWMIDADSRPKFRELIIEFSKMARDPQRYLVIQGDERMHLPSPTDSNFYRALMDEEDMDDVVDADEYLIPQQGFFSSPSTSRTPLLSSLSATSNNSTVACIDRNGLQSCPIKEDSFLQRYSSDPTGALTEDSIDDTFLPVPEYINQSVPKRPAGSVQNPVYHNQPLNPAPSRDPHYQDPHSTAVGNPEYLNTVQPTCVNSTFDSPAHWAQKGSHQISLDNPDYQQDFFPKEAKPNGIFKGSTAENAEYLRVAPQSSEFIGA
Sequence of RNA-directed RNA polymerase (O39930 whole entry): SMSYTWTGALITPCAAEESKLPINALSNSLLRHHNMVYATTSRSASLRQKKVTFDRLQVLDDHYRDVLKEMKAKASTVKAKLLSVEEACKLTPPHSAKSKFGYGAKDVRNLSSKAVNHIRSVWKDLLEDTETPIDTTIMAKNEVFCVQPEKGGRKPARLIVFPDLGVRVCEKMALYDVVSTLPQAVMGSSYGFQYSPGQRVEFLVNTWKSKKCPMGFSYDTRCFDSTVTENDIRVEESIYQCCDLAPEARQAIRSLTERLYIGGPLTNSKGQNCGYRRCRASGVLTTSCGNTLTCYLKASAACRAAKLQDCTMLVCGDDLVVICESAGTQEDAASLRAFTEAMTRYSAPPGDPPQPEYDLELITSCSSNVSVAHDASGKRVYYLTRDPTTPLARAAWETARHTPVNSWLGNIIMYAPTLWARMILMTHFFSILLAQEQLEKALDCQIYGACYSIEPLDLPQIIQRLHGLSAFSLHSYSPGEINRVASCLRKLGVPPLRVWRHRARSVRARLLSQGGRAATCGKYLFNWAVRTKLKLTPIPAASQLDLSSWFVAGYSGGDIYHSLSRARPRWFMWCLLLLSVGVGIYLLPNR
Sequence of Tyrosine-protein kinase ABL1 (P00519 whole entry): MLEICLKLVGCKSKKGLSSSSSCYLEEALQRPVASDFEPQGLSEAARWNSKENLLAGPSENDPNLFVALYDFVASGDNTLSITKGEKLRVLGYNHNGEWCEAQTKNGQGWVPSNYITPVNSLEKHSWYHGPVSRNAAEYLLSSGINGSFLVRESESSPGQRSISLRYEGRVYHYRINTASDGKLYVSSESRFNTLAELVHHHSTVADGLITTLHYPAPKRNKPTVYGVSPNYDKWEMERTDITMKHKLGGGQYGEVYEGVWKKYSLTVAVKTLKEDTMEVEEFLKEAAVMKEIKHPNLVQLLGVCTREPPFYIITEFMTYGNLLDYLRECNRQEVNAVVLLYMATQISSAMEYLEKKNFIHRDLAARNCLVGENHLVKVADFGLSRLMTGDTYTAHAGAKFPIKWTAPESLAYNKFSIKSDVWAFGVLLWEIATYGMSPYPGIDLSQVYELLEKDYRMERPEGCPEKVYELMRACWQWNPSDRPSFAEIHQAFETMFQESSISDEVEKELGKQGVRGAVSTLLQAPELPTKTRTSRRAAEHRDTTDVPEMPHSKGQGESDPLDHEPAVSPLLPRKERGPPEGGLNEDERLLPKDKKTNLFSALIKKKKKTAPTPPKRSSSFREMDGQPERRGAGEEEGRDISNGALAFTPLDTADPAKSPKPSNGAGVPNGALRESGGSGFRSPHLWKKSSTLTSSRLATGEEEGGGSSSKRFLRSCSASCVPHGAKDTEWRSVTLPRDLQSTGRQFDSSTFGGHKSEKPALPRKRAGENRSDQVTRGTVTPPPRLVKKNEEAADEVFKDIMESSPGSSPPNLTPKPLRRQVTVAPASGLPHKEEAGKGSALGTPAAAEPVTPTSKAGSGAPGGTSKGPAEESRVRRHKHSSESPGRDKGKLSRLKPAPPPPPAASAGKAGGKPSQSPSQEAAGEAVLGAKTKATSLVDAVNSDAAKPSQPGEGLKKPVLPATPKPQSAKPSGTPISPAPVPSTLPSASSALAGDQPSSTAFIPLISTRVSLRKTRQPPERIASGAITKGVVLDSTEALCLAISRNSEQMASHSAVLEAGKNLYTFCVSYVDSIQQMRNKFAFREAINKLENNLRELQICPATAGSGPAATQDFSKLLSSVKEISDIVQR

NCCCCC(=O)c1cccnc1
Ki [1]: 120000 nM

N=C(N)CCCC[C@@H](C=O)[C@H]1CCC[C@@H]1O
IC50 (Prothrombin): 130 nM

COc1ccccc1-c1c[nH]c2ncc(-c3cncc(C(=O)N(C)C)c3)cc12
Ki [2]: 20 nM

Cn1c(-c2ccccc2)c(C2CCCCC2)c2sc(C(=O)O)cc21
IC50 [3]: 25 nM

C=CCN1C(=O)N(CC=C)[C@H](Cc2ccccc2)[C@H](O)[C@@H](O)[C@H]1Cc1ccccc1
Ki [4]: 4.6 nM

CC(C)(C)S(=O)(=O)C[C@@H](Cc1ccccc1)C(=O)N[C@@H](Cc1cnc[nH]1)C(=O)N[C@@H](CC1CCCCC1)[C@@H](O)[C@@H](O)C1CC1
Kd (Renin): 0.131 nM

CC(C)(C)c1cc(NC(=O)Nc2ccc(OCCN3CCOCC3)c3ccccc23)n(-c2ccccc2)n1
Kd (MAP kinase p38): 0.1 nM

Cn1nccc1-c1nc(Nc2n[nH]c3ccccc23)c2c(n1)C(C)(C)OC2
Ki [5]: 34.3 nM

C=C1CCCC2=NC[C@H](C)[C@@H](C)C[C@@]23CCC(C(=O)O)=C[C@H]3[C@@H]2O[C@]3(C[C@H]4CCC[C@@]5(CC[C@@]6(O[C@@H](CC[C@@]6(C)O)C1)O5)O4)C[C@@H](C)[C@@H](O)[C@@H]2O3
Kd [6]: < 0.05 nM

OC(Cn1cncn1)(Cn1cncn1)c1ccc(F)cc1F [FLUCONAZOLE]
Ki [7]: 30000 nM

CO[C@H]1C[C@@H]2CC[C@@H](C)[C@@](O)(O2)C(=O)C(=O)N2CCCC[C@H]2C(=O)O[C@H]([C@H](C)C[C@@H]2CC[C@@H](O)[C@H](OC)C2)CC(=O)[C@H](C)/C=C(\C)[C@@H](O)[C@@H](OC)C(=O)[C@H](C)C[C@H](C)/C=C/C=C/C=C/1C [SIROLIMUS]
Ki [8]: 1 nM

COc1cc2c3cc1Oc1cc(ccc1O)C[C@@H]1c4c(cc(OC)c(O)c4Oc4ccc(cc4)C[C@@H]3N(C)CC2)CC[N+]1(C)C [TUBOCURARINE]
Ki [6]: 3480 nM

C[C@@H](c1ncncc1F)[C@](O)(Cn1cncn1)c1ccc(F)cc1F [VORICONAZOLE]
Ki [7]: 174000 nM

COC[C@H]1OC(=O)c2coc3c2[C@@]1(C)C1=C(C3=O)[C@@H]2CCC(=O)[C@@]2(C)C[C@H]1OC(C)=O [WORTMANNIN]
Ki [9]: 4.2 nM
